Reference: patent publication US9737523B2, “Anti-fibrogenic compounds, methods and uses thereof” (priority 2013, dated 2017)

Experiments:
MMP-1 = MMP-1 expression in human dermal fibroblasts, Western blot; assay type: cell-based
Protocol: Cells were then harvested after 48 hours and western blot analysis was performed.
Cells were harvested by Trypsin/EDTA and lysed with cell lysis buffer containing 50 mM Tris-HCl (pH7.40), 150 mM NaCl, 10 mM EDTA, 5 mM EGTA, 1% TritonX-100™, 0.5% Igepal CA-630, 0.025% NaN3 and protease inhibitor cocktail (Sigma™). Cell debris was removed by centrifugation at 20,000×g for 10 minutes. The protein concentration in supernatant was determined using the MicroBCA™ method (Pierce™, Rockford, Ill.). Proteins in supernatant were mixed with protein sample loading buffer (final concentration: 60 mM Tris-HCl (pH 6.80), 2% SDS, 10% glycerol, 1.5% β-mercaptoethanol, 0.002% bromophenol blue) and size fractioned by 10% of SDS-polyacrylamide gel. After proteins were transferred onto nitrocellulose membrane by iBlot™ (Invitrogen Life Technologies™), non-specific binding were blocked with phosphate buffer saline twenty 20 (PBS-T) containing 5% skim milk for 1 hour. The membrane was then incubated with primary antibody overnight. After incubation with a secondary antibody for 1 hour, protein bands were visualized by an enhanced chemiluminescence (ECL™) detection system (Santa Cruz Biotechnology™, Santa Cruz, Calif.). The primary antibodies used in this study were: mouse monoclonal anti-human MMP-1 (R&D Systems™, Minneapolis, Minn.), mouse monoclonal anti-human MMP-3 (R&D System™), rabbit monoclonal anti-human MMP-2 (Epitomics™, Burlingame, Calif.), rabbit polyclonal anti-phospho-MEK1/2 (Ser217/221™) (Cell Signaling Technology™, Danvers, Mass.), rabbit polyclonal anti-phospho-p44/42 MAPK (Thr202/Tyr204) (Cell Signaling Technology™), monoclonal anti-β-actin (Sigma™), and mouse anti-type-1 procollagen (Developmental Studies Hybridoma Bank™, Iowa City, Iowa). The secondary antibodies were either goat anti-mouse IgG (H+L) HPR conjugate or goat anti-rabbit IgG (H+L) HPR conjugate (Bio-rad Laboratory™ (Mississauga, ON, Canada). Secondary antibodies were used at a concentration of 1:3000.

splenocytes = test: ConA-induced splenocyte proliferation; assay type: cell-based; conditions: for reduction in conA-induced splenocyte proliferation: 100 and 150 μg/ml
fibronectin = test: Fibronectin mRNA in human dermal fibroblasts, real-time PCR; assay type: cell-based; conditions: various concentration
[1] = test system: MEK-ERK1/2 signaling pathway; test: Kynurenine-stimulated MMP-1 expression in dermal fibroblasts with MEK/ERK1/2 phosphorylation inhibitors; assay type: cell-based, human; conditions: 100 μg/ml kynurenine
Protocol: Cells were harvested by Trypsin/EDTA and lysed with cell lysis buffer containing 50 mM Tris-HCl (pH7.40), 150 mM NaCl, 10 mM EDTA, 5 mM EGTA, 1% TritonX-100™, 0.5% Igepal CA-630, 0.025% NaN3 and protease inhibitor cocktail (Sigma™). Cell debris was removed by centrifugation at 20,000×g for 10 minutes. The protein concentration in supernatant was determined using the MicroBCA™ method (Pierce™, Rockford, Ill.). Proteins in supernatant were mixed with protein sample loading buffer (final concentration: 60 mM Tris-HCl (pH 6.80), 2% SDS, 10% glycerol, 1.5% β-mercaptoethanol, 0.002% bromophenol blue) and size fractioned by 10% of SDS-polyacrylamide gel. After proteins were transferred onto nitrocellulose membrane by iBlot™ (Invitrogen Life Technologies™), non-specific binding were blocked with phosphate buffer saline twenty 20 (PBS-T) containing 5% skim milk for 1 hour. The membrane was then incubated with primary antibody overnight. After incubation with a secondary antibody for 1 hour, protein bands were visualized by an enhanced chemiluminescence (ECL™) detection system (Santa Cruz Biotechnology™, Santa Cruz, Calif.). […]

type 1 procollagen = test: Type 1 procollagen expression in dermal fibroblasts, Western blot; assay type: cell-based, human; conditions: kynurenine analogues/metabolites, FIG. 10 bottom
Protocol: (§1) Cell debris was removed by centrifugation at 20,000×g for 10 minutes. The protein concentration in supernatant was determined using the MicroBCA™ method (Pierce™, Rockford, Ill.). Proteins in supernatant were mixed with protein sample loading buffer (final concentration: 60 mM Tris-HCl (pH 6.80), 2% SDS, 10% glycerol, 1.5% β-mercaptoethanol, 0.002% bromophenol blue) and size fractioned by 10% of SDS-polyacrylamide gel. After proteins were transferred onto nitrocellulose membrane by iBlot™ (Invitrogen Life Technologies™), non-specific binding were blocked with phosphate buffer saline twenty 20 (PBS-T) containing 5% skim milk for 1 hour. The membrane was then incubated with primary antibody overnight. After incubation with a secondary antibody for 1 hour, protein bands were visualized by an enhanced chemiluminescence (ECL™) detection system (Santa Cruz Biotechnology™, Santa Cruz, Calif.). […] The secondary antibodies were either goat anti-mouse IgG (H+L) HPR conjugate or goat anti-rabbit IgG (H+L) HPR conjugate (Bio-rad Laboratory™ (Mississauga, ON, Canada). Secondary antibodies were used at a concentration of 1:3000.

MMP-3 = MMP-3 expression in human dermal fibroblasts, Western blot; assay type: cell-based
Protocol: Cells were then harvested by trypsinization and western blot analysis was performed.
as §1

[2] = kynurenine isoforms, 50 μg/ml, 48 hours

## Nc1ccccc1C(=O)C[C@@H](N)C(=O)O [D-kynurenine]
MMP-1; [2]
  MMP-1 expression: increase
splenocytes; after 48 hours
  reduction in conA-induced splenocyte proliferation: about 2 fold
splenocytes; after 96 hours
  reduction in conA-induced splenocyte proliferation: ~5 fold

## Nc1ccccc1C(=O)C[C@H](N)C(=O)O [L-kynurenine]
fibronectin
  fibronectin expression (mRNA): capable of down-regulating
MMP-1; 50 μg/ml, 48 hours
  activity on MMP-1 expression compared with the other isoforms: more activity compared to other two isoforms
MMP-1; [2]
  MMP-1 expression: increase
splenocytes; after 48 hours
  reduction in conA-induced splenocyte proliferation: about 2 fold
splenocytes; after 96 hours
  reduction in conA-induced splenocyte proliferation: ~5 fold

## COc1cccc(-c2cc(=O)c3ccccc3o2)c1N [PD98059]
[1]; various concentration of PD98059, dose-dependent
  effect on kynurenine-stimulated MMP-1 expression: effectively prevented

## N#CC(=C(/N)Sc1ccccc1N)/C(C#N)=C(\N)Sc1ccccc1N [U0126]
[1]; to M and 30 μM of U0126
  effect on up-regulation of MMP-1 expression by kynurenine: significantly reduced

## O=C(O)c1cc(=O)c2ccccc2[nH]1 [kynurenic acid]
Type 1 procollagen
  expression of type 1 procollagen: effective at inhibiting
MMP-1
  MMP-1 induction (general statement): induce
MMP-1; 100 μg/ml for 48 hours, then 48 hours after removal
  MMP1 protein expression 48 hours after treatment removal: remained higher than controls
MMP-1; 100 μg/ml for 48 hours, then another 24 hours after removal
  MMP1 expression versus untreated cells after treatment removal: remained significantly higher
MMP-1; 100 μg/ml for 48 hours, then removal
  lasting effect on expression of MMP-1 relative to Kyn: longer lasting effect
MMP-1; 100 μg/ml, at 48 hours after treatment
  MMP1 expression: marked increase
MMP-3
  MMP-3 induction (general statement): induce
splenocytes
  effect on splenocyte proliferation compared with other metabolites: less effect
splenocytes; after 96 hours
  reduction in conA-induced splenocyte proliferation: ~5 fold

## N[C@@H](Cc1c[nH]c2ccccc12)C(=O)O [tryptophan, reference compound]
MMP-1; 25 μg/ml tryptophan, 48 hrs
  MMP-1 expression, presence of tryptophan versus tryptophan-depleted media: no significant difference
MMP-1; various concentration of tryptophan, 48 hours
  MMP-1 expression: failed to increase

## O=C(O)c1cc(O)c2cccc(O)c2n1 [xanthurenic acid]
Type 1 procollagen
  expression of type 1 procollagen: effective at inhibiting
MMP-1
  MMP-1 induction (general statement): induce
MMP-3
  MMP-3 induction (general statement): induce
